Assay results as given in patent publication US20230293526A1, “METHOD FOR TREATING CANCER WITH A REVERSE TRANSCRIPTASE INHIBITOR” (PrimeFour Therapeutics, Inc., priority 2020, published 2023).

Tests used:
[1] = system: human LINE-1; test: Human LINE-1 (L1) retrotransposition dual-luciferase reporter assay in HeLa cells; type: cell-based; conditions: Homo sapiens, HeLa, 72 h, read-out: Human LINE-1 IC50 (Human L1 activity inhibition)
Outline: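 Compound dilution series (final DMSO 0.2%) added right after transfecting HeLa cells with the pYX017 L1 dual-luciferase reporter; 72 h culture at 37 °C, 5% CO2, triplicates. IC50 fitted by non-linear logistic regression to firefly-to-Renilla luminescence ratio (×10,000).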

[2] = system: cancer cell lines; test: Cancer cell proliferation activity of representative nucleosides, CellTiterGlo 72 h (Example 7, Tables 8 and 9); type: cell-based; conditions: 72 h
Outline: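 Percent viability was set against 0.1% DMSO (100%) and 10 μM staurosporine (0%), with signal from CellTiterGlo luminescence. Dose-response treatment began one day after seeding and lasted 72 h at 37° C under 5% or 10% CO2, with 0.1% final DMSO.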

Compound `CC[C@]1(CO)O[C@@H](n2ccc(N)nc2=O)C[C@@H]1O` [compound 21, 4-amino-1-((2R,4S,5R)-5-ethyl-4-hydroxy-5-(hydroxymethyl)tetrahydrofuran-2-yl)pyrimidin-2(1H)-one] has an IC50 [1] of 43 nM, an IC50 ([2]; 72 h, 5637, bladder) of over 50 µM and an IC50 ([2]; CLS439, bladder) of over 50 µM. It also gave an IC50 ([2]; HS729, muscle) of over 50 µM, an IC50 ([2]; J82, bladder) of over 50 µM and an IC50 ([2]; JAR, placenta) of over 50 µM. For the same compound, the IC50 ([2]; MT3, breast) was 3.29 µM, the IC50 ([2]; PC3, prostate) was over 50 µM and the IC50 ([2]; RD, muscle) was over 50 µM. For the same compound, the IC50 ([2]; T24, bladder) was 3.46 µM, the IC50 ([2]; Homo sapiens, 22Rv1, 72 h, 22RV1, prostate) was over 50 µM and the IC50 ([2]; Homo sapiens, 786-0, 72 h, 786O, kidney) was over 50 µM. It also gave an IC50 ([2]; Homo sapiens, A204, 72 h, A204, muscle) of 0.27 µM, an IC50 ([2]; Homo sapiens, A549, 72 h, A549, lung) of 5.54 µM and an IC50 ([2]; Homo sapiens, A673, 72 h, A673, bone) of over 50 µM. For the same compound, the IC50 ([2]; Homo sapiens, A2780, 72 h, A2780, ovary) was over 50 µM, the IC50 ([2]; Homo sapiens, A-375, 72 h, A375, skin) was over 50 µM and the IC50 ([2]; Homo sapiens, A-431, 72 h, A431, skin) was over 50 µM. It also gave an IC50 ([2]; Homo sapiens, ACHN, kidney) of 2.74 µM, an IC50 ([2]; Homo sapiens, ASPC1, 72 h, ASPC1, pancreas) of over 50 µM and an IC50 ([2]; Homo sapiens, BT-20, 72 h, BT20, breast) of over 50 µM. It also gave an IC50 ([2]; Homo sapiens, BXPC-3, 72 h, BXPC3, pancreas) of over 50 µM, an IC50 ([2]; Homo sapiens, C-33-A, C33A, endometrial) of 6.53 µM and an IC50 ([2]; Homo sapiens, CAKI-1, 72 h, CAKI1, kidney) of 1.49 µM. For the same compound, the IC50 ([2]; Homo sapiens, COLO 205, 72 h, COLO205, colon) was 3.44 µM, the IC50 ([2]; Homo sapiens, COLO-678, 72 h, COLO678, colon) was over 50 µM and the IC50 ([2]; Homo sapiens, Ca-Ski, CASKI, endometrial) was over 50 µM. For the same compound, the IC50 ([2]; Homo sapiens, Caco-2, 72 h, CACO2, colon) was over 50 µM, the IC50 ([2]; Homo sapiens, Calu-6, 72 h, CALU6, lung) was over 50 µM and the IC50 ([2]; Homo sapiens, DLD-1, 72 h, DLD1, colon) was over 50 µM. For the same compound, the IC50 ([2]; Homo sapiens, DU-145, 72 h, DU145, prostate) was over 50 µM, the IC50 ([2]; Homo sapiens, EFO-21, 72 h, EFO21, ovary) was over 50 µM and the IC50 ([2]; Homo sapiens, EJ-28, 72 h, EJ28, bladder) was over 50 µM. It also gave an IC50 ([2]; Homo sapiens, Granta-519, 72 h, GRANTA-519, hematological) of 1.61 µM, an IC50 ([2]; Homo sapiens, HCT-15, 72 h, HCT15, colon) of 9.11 µM and an IC50 ([2]; Homo sapiens, HCT-116, 72 h, HCT116, colon) of 3.01 µM. It also gave an IC50 ([2]; Homo sapiens, HEK293, 72 h, HEK293, kidney) of over 50 µM, an IC50 ([2]; Homo sapiens, HL-60, 72 h, HL-60, hematological) of over 50 µM and an IC50 ([2]; Homo sapiens, HT-29, 72 h, HT29, colon) of over 50 µM. The IC50 ([2]; Homo sapiens, HT-1080, 72 h, HT1080, connective tissue) was over 50 µM, the IC50 ([2]; Homo sapiens, HeLa, endometrial) was over 50 µM and the IC50 ([2]; Homo sapiens, HepG2, 72 h, HEPG2, liver) was over 50 µM. It also gave an IC50 ([2]; Homo sapiens, Hs-578T, HS578T, breast) of over 50 µM, an IC50 ([2]; Homo sapiens, IGROV-1, 72 h, IGROV1, ovary) of over 50 µM and an IC50 ([2]; Homo sapiens, IMR-90, 72 h, IMR90, lung) of over 50 µM. For the same compound, the IC50 ([2]; Homo sapiens, JEG-3, 72 h, JEG3, placenta) was over 50 µM, the IC50 ([2]; Homo sapiens, JIMT-1, 72 h, JIMT1, breast) was over 50 µM and the IC50 ([2]; Homo sapiens, K562, 72 h, K-562, hematological) was over 50 µM. It also gave an IC50 ([2]; Homo sapiens, Kasumi 1, 72 h, KASUMI-1, hematological) of over 50 µM, an IC50 ([2]; Homo sapiens, L-363, 72 h, L-363, hematological) of over 50 µM and an IC50 ([2]; Homo sapiens, LoVo, colon) of over 50 µM. For the same compound, the IC50 ([2]; Homo sapiens, MCF7, 72 h, MCF7, breast) was over 50 µM, the IC50 ([2]; Homo sapiens, MDA-MB-231, 72 h, MDAMB231, breast) was 2.85 µM and the IC50 ([2]; Homo sapiens, MDA-MB-435, 72 h, MDAMB435, skin) was over 50 µM. The IC50 ([2]; Homo sapiens, MDA-MB-436, 72 h, MDAMB436, breast) was over 50 µM, the IC50 ([2]; Homo sapiens, MDA-MB-468, 72 h, MDAMB468, breast) was over 50 µM and the IC50 ([2]; Homo sapiens, MG-63, 72 h, MG63, bone) was over 50 µM. For the same compound, the IC50 ([2]; Homo sapiens, MHH-ES-1, 72 h, MHHES1, bone) was over 50 µM, the IC50 ([2]; Homo sapiens, MIA PaCa-2, 72 h, MIAPACA2, pancreas) was over 50 µM and the IC50 ([2]; Homo sapiens, MINO, hematological) was 1.3 µM. For the same compound, the IC50 ([2]; Homo sapiens, MV4-11, 72 h, MV4-11, hematological) was 4.39 µM, the IC50 ([2]; Homo sapiens, NCI-H23, 72 h, NCI-H23, lung) was over 50 µM and the IC50 ([2]; Homo sapiens, NCI-H82, 72 h, NCIH82, lung) was over 50 µM. The IC50 ([2]; Homo sapiens, NCI-H292, 72 h, NCIH292, lung) was 4.62 µM, the IC50 ([2]; Homo sapiens, NCI-H460, 72 h, NCIH460, ung) was 4.01 µM and the IC50 ([2]; Homo sapiens, OVCAR-3, 72 h, OVCAR3, ovary) was over 50 µM. The IC50 ([2]; Homo sapiens, OVCAR-4, 72 h, OVCAR4, ovary) was over 50 µM, the IC50 ([2]; Homo sapiens, PANC-1, 72 h, PANC1, pancreas) was over 50 µM and the IC50 ([2]; Homo sapiens, PLC-PRF-5, 72 h, PLCPRF5, liver) was over 50 µM. The IC50 ([2]; Homo sapiens, Panc1005, 72 h, PANC1005, pancreas) was over 50 µM, the IC50 ([2]; Homo sapiens, Ramos, hematological) was 1.72 µM and the IC50 ([2]; Homo sapiens, SAOS-2, 72 h, SAOS2, bone) was over 50 µM. For the same compound, the IC50 ([2]; Homo sapiens, SF-268, 72 h, SF268, brain) was over 50 µM, the IC50 ([2]; Homo sapiens, SF-295, 72 h, SF295, brain) was over 50 µM and the IC50 ([2]; Homo sapiens, SK-BR-3, 72 h, SKBR3, breast) was over 50 µM. It also gave an IC50 ([2]; Homo sapiens, SK-HEP1, 72 h, SKHEP1, liver) of over 50 µM, an IC50 ([2]; Homo sapiens, SK-LMS-1, 72 h, SKLMS1, uterus) of over 50 µM and an IC50 ([2]; Homo sapiens, SK-MEL-5, 72 h, SKMEL5, skin) of over 50 µM. For the same compound, the IC50 ([2]; Homo sapiens, SK-MEL-28, 72 h, SKMEL28, skin) was over 50 µM, the IC50 ([2]; Homo sapiens, SK-N-AS, SKNAS, brain) was over 50 µM and the IC50 ([2]; Homo sapiens, SK-N-SH, SKNSH, brain) was over 50 µM. It also gave an IC50 ([2]; Homo sapiens, SK-OV-3, 72 h, SKOV3, ovary) of over 50 µM, an IC50 ([2]; Homo sapiens, SNB-75, 72 h, SNB75, brain) of over 50 µM and an IC50 ([2]; Homo sapiens, SU-DHL10, 72 h, SU-DHL-10, hematological) of over 50 µM. It also gave an IC50 ([2]; Homo sapiens, SU-DHL-6, 72 h, SU-DHL-6, hematological) of 3.8 µM, an IC50 ([2]; Homo sapiens, SW-620, 72 h, SW620, colon) of over 50 µM and an IC50 ([2]; Homo sapiens, TE-671, 72 h, TE671, muscle) of over 50 µM. It also gave an IC50 ([2]; Homo sapiens, THP-1, 72 h, THP-1, hematological) of over 50 µM, an IC50 ([2]; Homo sapiens, U2OS, bone) of over 50 µM and an IC50 ([2]; Homo sapiens, U-87 MG, U87MG, brain) of over 50 µM. For the same compound, the IC50 ([2]; Homo sapiens, UMUC3, 72 h, UMUC3, bladder) was over 50 µM, the IC50 ([2]; Homo sapiens, UO-31, 72 h, UO31, kidney) was 9.45 µM and the IC50 ([2]; Homo sapiens, WSU-NHL, hematological) was 2.82 µM. The IC50 ([2]; NCI-H358M, NCIH358M, lung) was 1.49 µM, the IC50 ([2]; PBMC, hematological) was 11.8 µM and the IC50 ([2]; RD-ES, RDES, bone) was over 50 µM.
